Earlier results, collected in patent publication US20250135196A1, “COMPOSITIONS, SYSTEMS, AND METHODS FOR TREATING CANCER USING TUMOR TREATING FIELDS WITH INHIBITORS OF MIF, MICA, AND/OR MICB” (Brown University, priority 2023, published 2025).
One block for each molecule: values may come before it.

Legend:
MIF-CD74 = target: T1, MIF-CD74 (Homo sapiens, UniProt P14174); details: binding assay MIF-CD74; for Kd: read-out: Kd (BA)
T1 sequence (P14174 2-115 limits assumed): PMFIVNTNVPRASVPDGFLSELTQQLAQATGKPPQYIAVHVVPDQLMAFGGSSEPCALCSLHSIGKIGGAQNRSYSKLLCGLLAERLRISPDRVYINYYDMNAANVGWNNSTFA

MIF = target: T2, MIF (Homo sapiens, UniProt P14174); details: tautomerase assay; for IC50 / Ki: literature values, reference number in brackets in cell; for fold more potent than ISO-1 (TA): relative to ISO-1; for Ki: read-out: Ki (TA)
T2 sequence (P14174 2-115 limits assumed): T1 sequence (P14174 2-115 limits assumed)

Max. inhibition (BA) (MIF-CD74; maximal inhibition): 40%
Compound: COC(=O)CC1CC(c2ccc(O)cc2)=NO1 (racemic) [ISO-1]

IC50 (MIF): 1500 nM
Compound: COC(=O)CC1CC(c2ccc(O)c(F)c2)=NO1 (stereo not shown) [ISO-66]

More lines, now with the values behind:

Compound: Ic1cc(-c2ccccc2)ncn1 [4-IPP, 4-iodo-6-phenylpyrimidine]
IC50 (MIF): 200 to 500 nM

Compound: O=C(CC1CC(c2ccc(F)cc2F)=NO1)N1CCOCC1 (stereo not shown) [CPS1-1306]
fold more potent than ISO-1 (TA) (MIF): 100-fold more potent than ISO-1 [35] (TA)

Compound: CN(C(=O)CC1CC(c2ccc(Cl)cc2)=NO1)C1CCCCC1 (stereo not shown) [CPSI-2705]
fold more potent than ISO-1 (TA) (MIF): 2-10-fold more potent than ISO-1 (35) (TA)

Compound: O=C(O)c1cccc(Oc2cc(-c3cn(-c4ccc(O)c(F)c4)nn3)nc3ccccc23)c1 [Dziedzic-3bb]
Kd (MIF-CD74): 71 nM
Ki (MIF): 57 nM

Compound: COc1cccc(Cn2cc(-c3ccc(O)cc3)nn2)c1OC [Jorgensen-3g]
IC50 (MIF-CD74): 900 nM

Compound: COC(=O)c1cccc(Cn2cc(-c3ccc(O)cc3)nn2)c1 [Jorgensen-3h]
IC50 (MIF-CD74): 1000 nM

Compound: COc1ccc(N2Cc3ccc(O)cc3OC2=O)cc1 [NVS-2]
Kd (MIF-CD74): 55 nM
IC50 (MIF): 20 nM
Ki (MIF): 27 nM

Compound: Cc1ccccc1-c1cc2ccccc2c(=O)o1 [SCD-19]
inhibition (TA) (MIF; at concentration of 100 μM): 100% inhibition at concentration of 100 μM [37] (TA)
